According to ChEMBL document CHEMBL1126034, “Carboxylic acid replacement structure-activity relationships in suosan type sweeteners. A sweet taste antagonist. 1” (J Med Chem, 1992):

Columns and labels:
Format in all cases: functional
[1] = Compound was tested at the concentration of 0(ppm) for percent sucrose equivalent intensity in Na cyclamate aqueous solution contains concentration of 5000(ppm)
[2] = Compound was tested at the concentration of 1000(ppm) for percent sucrose intensity in aspartame solution contains concentration of 1500(ppm)
[3] = Compound was tested at the concentration of 1000(ppm) for percent sucrose intensity in aspartame solution contains concentration of 750(ppm)
[4] = Compound was tested at the concentration of 0(ppm) for percent sucrose equivalent intensity in acesulfame-K aqueous solution contains concentration of 1000(ppm)
[5] = Compound was tested at the concentration of 4000(ppm) for percent sucrose equivalent intensity in sucrose aqueous solution contains concentration of 10000(ppm)
[6] = Compound was tested at the concentration of 4000(ppm) for bitterness rating in quinine aqueous solution contains concentration of 15(ppm)
[7] = Compound was tested at the concentration of 4000(ppm) for percent sucrose equivalent intensity in rebaudioside A aqueous solution contains concentration of 638(ppm)
[8] = Compound was tested at the concentration of 4.0 mg/mL for percent sucrose intensity in aqueous sucrose solution (12.5%)
[9] = Compound was tested at the concentration of 4000(ppm) for percent sucrose equivalent intensity in acesulfame-K aqueous solution contains concentration of 1000(ppm)
[10] = Compound was tested at the concentration of 0(ppm) for percent sucrose equivalent intensity in rebaudioside A aqueous solution contains concentration of 638(ppm)
[11] = Compound was tested at the concentration of 0(ppm) for percent sucrose equivalent intensity in saccharin aqueous solution contains concentration of 330(ppm)
[12] = Compound was tested at the concentration of 4000(ppm) for percent sucrose intensity in aspartame solution contains concentration of 750(ppm)
[13] = Compound was tested at the concentration of 2000(ppm) for percent sucrose intensity in aspartame solution contains concentration of 750(ppm)
[14] = Compound was tested at the concentration of 0(ppm) for percent sucrose equivalent intensity in thaumatin aqueous solution contains concentration of 40(ppm)
[15] = Compound was tested at the concentration of 0(ppm) for bitterness rating in caffiene aqueous solution contains concentration of 1100(ppm)
[16] = Compound was tested at the concentration of 4000(ppm) for percent sucrose intensity in aspartame solution contains concentration of 250(ppm)
[17] = Compound was tested at the concentration of 4000(ppm) for bitterness rating in naringin aqueous solution contains concentration of 290(ppm)
[18] = Compound was tested at the concentration of 4000(ppm) for percent sucrose intensity in aspartame solution contains concentration of 1000(ppm)
[19] = Compound was tested at the concentration of 4000(ppm) for bitterness rating in caffiene aqueous solution contains concentration of 1100(ppm)
[20] = Compound was tested at the concentration of 2.0 mg/mL for percent sucrose intensity in aqueous sucrose solution (10%)
[21] = Compound was tested at the concentration of 1000(ppm) for percent sucrose intensity in aspartame solution contains concentration of 2500(ppm)
[22] = Compound was tested at the concentration of 4.0 mg/mL for percent sucrose intensity in aqueous sucrose solution (5.6%)
[23] = Compound was tested at the concentration of 2000(ppm) for percent sucrose intensity in aspartame solution contains concentration of 500(ppm)
[24] = Compound was tested at the concentration of 2.0 mg/mL for percent sucrose intensity in aqueous sucrose solution (7.5%)
[25] = Compound was tested at the concentration of 3.0 mg/mL for percent sucrose intensity in aqueous sucrose solution (5.6%)
[26] = Compound was tested at the concentration of 1000(ppm) for percent sucrose intensity in aspartame solution contains concentration of 500(ppm)
[27] = Compound was tested at the concentration of 4000(ppm) for percent sucrose equivalent intensity in NHDHC aqueous solution contains concentration of 250(ppm)
[28] = Compound was tested at the concentration of 2000(ppm) for percent sucrose intensity in aspartame solution contains concentration of 3000(ppm)
[29] = Compound was tested at the concentration of 3.0 mg/mL for percent sucrose intensity in aqueous sucrose solution (3.5%)
[30] = Compound was tested at the concentration of 2000(ppm) for percent sucrose intensity in aspartame solution contains concentration of 250(ppm)
[31] = Compound was tested at the concentration of 2000(ppm) for percent sucrose intensity in aspartame solution contains concentration of 2000(ppm)
[32] = Compound was tested at the concentration of 4000(ppm) for percent sucrose equivalent intensity in saccharin aqueous solution contains concentration of 330(ppm)
[33] = Compound was tested at the concentration of 2000(ppm) for percent sucrose intensity in aspartame solution contains concentration of 2500(ppm)
[34] = Compound was tested at the concentration of 0(ppm) for percent sucrose equivalent intensity in aspartame aqueous solution contains concentration of 750(ppm)
[35] = Compound was tested at the concentration of 4000(ppm) for percent sucrose intensity in aspartame solution contains concentration of 500(ppm)
[36] = Compound was tested at the concentration of 2000(ppm) for percent sucrose intensity in aspartame solution contains concentration of 1500(ppm)
[37] = Compound was tested at the concentration of 3.0 mg/mL for percent sucrose intensity in aqueous sucrose solution (12.5%)
[38] = Compound was tested at the concentration of 0(ppm) for percent sucrose intensity in aspartame solution contains concentration of 3000(ppm)
[39] = Compound was tested at the concentration of 0.0 mg/mL for percent sucrose intensity in aqueous sucrose solution(12.5%)
[40] = Compound was tested at the concentration of 2000(ppm) for percent sucrose intensity in aspartame solution contains concentration of 1000(ppm)
[41] = Compound was tested at the concentration of 4000(ppm) for percent sucrose intensity in aspartame solution contains concentration of 2000(ppm)
[42] = Compound was tested at the concentration of 4000(ppm) for percent sucrose equivalent intensity in Na cyclamate aqueous solution contains concentration of 5000(ppm)
[43] = Compound was tested at the concentration of 0.0 mg/mL for percent sucrose intensity in aqueous sucrose solution(5.6%)
[44] = Compound was tested at the concentration of 0(ppm) for percent sucrose intensity in aspartame solution contains concentration of 500(ppm)
[45] = Compound was tested at the concentration of 4.0 mg/mL for percent sucrose intensity in aqueous sucrose solution (10%)
[46] = Compound was tested at the concentration of 0.0 mg/mL for percent sucrose intensity in aqueous sucrose solution( 10%)
[47] = Compound was tested at the concentration of 0(ppm) for percent sucrose intensity in aspartame solution contains concentration of 1500(ppm)
[48] = Compound was tested at the concentration of 0(ppm) for percent sucrose equivalent intensity in sucralose aqueous solution contains concentration of 152(ppm)
[49] = Compound was tested at the concentration of 0(ppm) for percent sucrose intensity in aspartame solution contains concentration of 2500(ppm)
[50] = Compound was tested at the concentration of 0(ppm) for percent sucrose intensity in aspartame solution contains concentration of 2000(ppm)
[51] = Compound was tested at the concentration of 0(ppm) for percent sucrose intensity in aspartame solution contains concentration of 250(ppm)
[52] = Compound was tested at the concentration of 1000(ppm) for percent sucrose intensity in aspartame solution contains concentration of 3000(ppm)
[53] = Compound was tested at the concentration of 2.0 mg/mL for percent sucrose intensity in aqueous sucrose solution (3.5%)
[54] = Compound was tested at the concentration of 0(ppm) for percent sucrose equivalent intensity in NHDHC aqueous solution contains concentration of 250(ppm)
[55] = Compound was tested at the concentration of 4000(ppm) for percent sucrose intensity in aspartame solution contains concentration of 3000(ppm)
[56] = Compound was tested at the concentration of 1000(ppm) for percent sucrose intensity in aspartame solution contains concentration of 1000(ppm)
[57] = Compound was tested at the concentration of 0(ppm) for percent sucrose equivalent intensity in sucrose aqueous solution contains concentration of 10000(ppm)
[58] = Compound was tested at the concentration of 0.0 mg/mL for percent sucrose intensity in aqueous sucrose solution(7.5%)
[59] = Compound was tested at the concentration of 0(ppm) for percent sucrose intensity in aspartame solution contains concentration of 1000(ppm)
[60] = Compound was tested at the concentration of 4000(ppm) for percent sucrose equivalent intensity in sucralose aqueous solution contains concentration of 152(ppm)
[61] = Compound was tested at the concentration of 2.0 mg/mL for percent sucrose intensity in aqueous sucrose solution (12.5%)
[62] = Compound was tested at the concentration of 4.0 mg/mL for percent sucrose intensity in aqueous sucrose solution (7.5%)
[63] = Compound was tested at the concentration of 4000(ppm) for percent sucrose equivalent intensity in MAG aqueous solution contains concentration of 3000(ppm)
[64] = Compound was tested at the concentration of 0(ppm) for percent sucrose equivalent intensity in MAG aqueous solution contains concentration of 3000(ppm)
[65] = Compound was tested at the concentration of 4.0 mg/mL for percent sucrose intensity in aqueous sucrose solution (3.5%)
[66] = Compound was tested at the concentration of 0.0 mg/mL for percent sucrose intensity in aqueous sucrose solution(3.5%)
[67] = Compound was tested at the concentration of 2.0 mg/mL for percent sucrose intensity in aqueous sucrose solution (5.6%)
[68] = Compound was tested at the concentration of 3.0 mg/mL for percent sucrose intensity in aqueous sucrose solution (7.5%)
[69] = Compound was tested at the concentration of 1000(ppm) for percent sucrose intensity in aspartame solution contains concentration of 2000(ppm)
[70] = Compound was tested at the concentration of 0(ppm) for bitterness rating in naringin aqueous solution contains concentration of 290(ppm)
[71] = Compound was tested at the concentration of 0(ppm) for bitterness rating in quinine aqueous solution contains concentration of 15(ppm)
[72] = Compound was tested at the concentration of 0(ppm) for percent sucrose intensity in aspartame solution contains concentration of 750(ppm)
[73] = Compound was tested at the concentration of 4000(ppm) for percent sucrose intensity in aspartame solution contains concentration of 1500(ppm)
[74] = Compound was tested at the concentration of 4000(ppm) for percent sucrose intensity in aspartame solution contains concentration of 2500(ppm)
[75] = Compound was tested at the concentration of 4000(ppm) for percent sucrose equivalent intensity in aspartame aqueous solution contains concentration of 750(ppm)
[76] = Compound was tested at the concentration of 3.0 mg/mL for percent sucrose intensity in aqueous sucrose solution (10%)
[77] = Compound was tested at the concentration of 4000(ppm) for percent sucrose equivalent intensity in thaumatin aqueous solution contains concentration of 40(ppm)
[78] = Compound was tested at the concentration of 1000(ppm) for percent sucrose intensity in aspartame solution contains concentration of 250(ppm)

## N#Cc1ccc(NC(=O)NCS(=O)(=O)O)cc1
[1]
  Sweetness potency: 10.1 0-15 scale
[2]
  Sweetness potency: 9.62 0-15 scale
[3]
  Sweetness potency: 7.43 0-15 scale
[4]
  Sweetness potency: 7.88 0-15 scale
[5]
  Sweetness potency: 3.23 0-15 scale
[6]
  Bitter taste intensity: 5.73 0-15 scale
[7]
  Sweetness potency: 3.11 0-15 scale
[8]
  Sweetness potency: 6.4 0-15 scale
[9]
  Sweetness potency: 4.59 0-15 scale
[10]
  Sweetness potency: 7.62 0-15 scale
[11]
  Sweetness potency: 8.15 0-15 scale
[12]
  Sweetness potency: 4.46 0-15 scale
[13]
  Sweetness potency: 6.24 0-15 scale
[14]
  Sweetness potency: 8.86 0-15 scale
[15]
  Bitter taste intensity: 8.48 0-15 scale
[16]
  Sweetness potency: 1.37 0-15 scale
[17]
  Bitter taste intensity: 7.8 0-15 scale
[18]
  Sweetness potency: 5.85 0-15 scale
[19]
  Bitter taste intensity: 4.77 0-15 scale
[20]
  Sweetness potency: 7.3 0-15 scale
[21]
  Sweetness potency: 10.2 0-15 scale
[22]
  Sweetness potency: 1.3 0-15 scale
[23]
  Sweetness potency: 4.48 0-15 scale
[24]
  Sweetness potency: 4.9 0-15 scale
[25]
  Sweetness potency: 2.2 0-15 scale
[26]
  Sweetness potency: 5.98 0-15 scale
[27]
  Sweetness potency: 5.98 0-15 scale
[28]
  Sweetness potency: 9.11 0-15 scale
[29]
  Sweetness potency: 1.6 0-15 scale
[30]
  Sweetness potency: 2.11 0-15 scale
[31]
  Sweetness potency: 9.35 0-15 scale
[32]
  Sweetness potency: 4.06 0-15 scale
[33]
  Sweetness potency: 8.95 0-15 scale
[34]
  Sweetness potency: 9.88 0-15 scale
[35]
  Sweetness potency: 2.57 0-15 scale
[36]
  Sweetness potency: 8.35 0-15 scale
[37]
  Sweetness potency: 8.6 0-15 scale
[38]
  Sweetness potency: 11.4 0-15 scale
[39]
  Sweetness potency: 12.3 0-15 scale
[40]
  Sweetness potency: 7.34 0-15 scale
[41]
  Sweetness potency: 6.91 0-15 scale
[42]
  Sweetness potency: 6.05 0-15 scale
[43]
  Sweetness potency: 6.1 0-15 scale
[44]
  Sweetness potency: 7.55 0-15 scale
[45]
  Sweetness potency: 4.5 0-15 scale
[46]
  Sweetness potency: 10.1 0-15 scale
[47]
  Sweetness potency: 11.4 0-15 scale
[48]
  Sweetness potency: 8.52 0-15 scale
[49]
  Sweetness potency: 12.9 0-15 scale
[50]
  Sweetness potency: 12 0-15 scale
[51]
  Sweetness potency: 5.34 0-15 scale
[52]
  Sweetness potency: 10.7 0-15 scale
[53]
  Sweetness potency: 2.3 0-15 scale
[54]
  Sweetness potency: 8.85 0-15 scale
[55]
  Sweetness potency: 7.82 0-15 scale
[56]
  Sweetness potency: 8.83 0-15 scale
[57]
  Sweetness potency: 9.6 0-15 scale
[58]
  Sweetness potency: 8.5 0-15 scale
[59]
  Sweetness potency: 10.1 0-15 scale
[60]
  Sweetness potency: 1.43 0-15 scale
[61]
  Sweetness potency: 9.3 0-15 scale
[62]
  Sweetness potency: 3.3 0-15 scale
[63]
  Sweetness potency: 5.28 0-15 scale
[64]
  Sweetness potency: 6.97 0-15 scale
[65]
  Sweetness potency: 1.2 0-15 scale
[66]
  Sweetness potency: 4 0-15 scale
[67]
  Sweetness potency: 3.6 0-15 scale
[68]
  Sweetness potency: 4.2 0-15 scale
[69]
  Sweetness potency: 10.5 0-15 scale
[70]
  Bitter taste intensity: 10.5 0-15 scale
[71]
  Bitter taste intensity: 11.8 0-15 scale
[72]
  Sweetness potency: 9.78 0-15 scale
[73]
  Sweetness potency: 6.44 0-15 scale
[74]
  Sweetness potency: 8.86 0-15 scale
[75]
  Sweetness potency: 3.87 0-15 scale
[76]
  Sweetness potency: 6.5 0-15 scale
[77]
  Sweetness potency: 6.23 0-15 scale
[78]
  Sweetness potency: 3.3 0-15 scale
